Like-named read-outs stand apart in the source and are kept apart here.
Experiments:
[1] = test system: testosterone level in NCI-H295R cells; assay: cells; format: cell-based; conditions: for inhibition at 0.1 µM / inhibition at 1 µM / IC50: Homo sapiens, NCI-H295R, 72 h; for IC50: read-out: Testosterone level in H295R (Elisa) IC50 nM
Protocol: The purpose of the experimental study was intended to detect the testosterone level in the NCI-H295R cells by adopting the Enzyme linked immunosorbent assay (ELISA), so as to evaluate the inhibitory effects of the compounds on the testosterone level in the NCI-H295R cells.
The H295R cells were purchased from ATCC, the cell complete medium contained DMEM: F12+ 10% FBS +0.00625 mg/ml insulin +0.00625 mg/ml transferrin+6.25 ng/ml selenium +1.25 mg/ml BSA+0.00535 mg/ml linoleic acid, and the cells were cultured in a 37°C, 5% CO2 incubator. The cells in the exponential growth phase were collected, and cultured in a cytokine-free medium (phenol red 1640-free +1% PS+10% css FBS+1.25 mg/ml BSA +0.00625 mg/ml insulin + 0.00625 mg/ml transferrin+6.25 ng/ml selenium+0.00535 mg/ml linoleic acid) for three days. The cells in the exponential growth phase were collected on the third day. The cell suspension was adjusted with a cytokine-free medium to a corresponding concentration and plated at 60000 cells/well, with the volume being 90 µL/well. Subsequently, 10 µL of the compounds at different concentrations was added and the plate was incubated in a CO2 incubator for three days. After the incubation was completed, according to the operation instructions for testosterone Elisa kit (Beyotime, PT872), 50 µL of the cell culture supernatant was collected from each well and centrifuged at 500 g for 5 min at room temperature and then the resulting supernatant was collected. The samples were added to the corresponding wells at 25 µl/well, and then formulated horseradish peroxidase labelled testosterone was added at 75 µl/well. The mixture was fully mixed for 10 seconds. The reaction wells were sealed with a plate-sealing film (white) and the mixture was incubated at room temperature in the dark for 120 min. The plate was washed three times with a volume of 300 µl per well, and then placed onto thick absorbent paper and dried. Chromogenic reagent TMB solution was added at 100 µl/well. The reaction wells were sealed with a plate-sealing film (white) and the mixture was incubated at room temperature in the dark for 15-20 min. Subsequently, a termination solution was added at 50 µl/well, and after the mixture was fully mixed, the absorbance value OD450 was immediately measured. The absorbance readings were processed using Graphpad Prim 8.0 software and S-shaped concentration curves were plotted and the IC50 values were calculated using a four-parameter non-linear regression model.

[2] = Pharmacokinetic test in rats; format: in vivo; conditions: rat, male SD rats, plasma; for Vd: read-out: Vdss
Protocol: 3.1 Experimental animals: Male SD rats (about 220 g, 6-8 weeks old, 6 rats/compound) were purchased from Chengdu Dossy Experimental Animals Co., Ltd.
3.2 Experimental design: On the day of the experiment, the SD rats were randomly grouped by body weight. […] Table 4 Administration information
Before and after the administration, 0.1 ml of blood was taken from the orbit of the animals under isoflurane anaesthesia and placed in an EDTAK2 centrifuge tube. The blood was centrifuged at 5000 rpm and 4°C for 10 min to collect plasma. […] Before analysis and detection, all samples were stored at -80°C. Table 5 Pharmacokinetic parameters of test compounds in plasma of rats

[3] = read-out: Testosterone level in H295R (Elisa) inh.% 100 nM, 100 nM compound, NCI-H295R cells, three days incubation
[4] = read-out: Testosterone level in H295R (Elisa) inh.% 1000 nM, 1000 nM compound, NCI-H295R cells, three days incubation
[5] = po, intragastric administration (10 mg/kg)
[6] = intravenous administration (2.5 mg/kg)
[7] = read-out: Testosterone level in H295R (Elisa) inh.% 100 nM
[8] = read-out: Testosterone level in H295R (Elisa) inh.% 1000 nM

## C#CCCS(=O)(=O)N1CCC(COc2coc(CN3Cc4ccc(C(F)(F)F)cc4C3)cc2=O)CC1 [Compound 12]
[1]; [3]
  inhibition at 0.1 µM: 85.6%
[1]; [4]
  inhibition at 1 µM: 83.4%

## CC(F)(F)C(=O)N[C@H]1CC[C@H](/C=C/c2coc(CN3Cc4ccc(C(F)(F)F)cc4C3)cc2=O)CC1 [Compound 108]
[1]; [3]
  inhibition at 0.1 µM: 75%
[1]; [4]
  inhibition at 1 µM: 84%

## CS(=O)(=O)N1CC(OC(=O)N2CC(COc3coc(CN4Cc5ccc(C(F)(F)F)cc5C4)cc3=O)C2)C1 [Compound 60]
[1]; [3]
  inhibition at 0.1 µM: 57.7%
[1]; [4]
  inhibition at 1 µM: 78.5%

## O=C(OC1CC1)N1CCC(COc2coc(CN3Cc4ccc(C(F)(F)F)cc4C3)cc2=O)CC1 [Compound 32]
[1]
  IC50: 117 nM
[1]; [3]
  inhibition at 0.1 µM: 76.1%
[1]; [4]
  inhibition at 1 µM: 64.3%

## Cn1ncc(C(=O)N[C@H]2CC[C@H](/C=C/c3coc(CN4Cc5ccc(C(F)(F)F)cc5C4)cc3=O)CC2)c1F [Compound 106]
[1]; [3]
  inhibition at 0.1 µM: 69%
[1]; [4]
  inhibition at 1 µM: 93%

## O=c1cc(CN2Cc3ccc(C(F)(F)F)cc3C2)occ1/C=C/[C@H]1CC[C@H](NC(=O)[C@H]2C[C@H](F)C2)CC1 [Compound 101]
[2]; [5]
  AUC(0-t): 11600 ng·h/mL
  half-life: 3.59 h
[2]; [6]
  AUC(0-t): 5640 ng·h/mL
  clearance: 7.45 mL/min/kg
  half-life: 2.96 h
  Vd: 1.47 L/kg
[1]; [7]
  inhibition at 0.1 µM: 73%
[1]; [8]
  inhibition at 1 µM: 71%

## Cc1nc(C(=O)N[C@H]2CC[C@H](COc3coc(CN4Cc5ccc(OC6CC6)cc5C4)cc3=O)CC2)cs1 [Compound 47]
[1]; [3]
  inhibition at 0.1 µM: 72.2%
[1]; [4]
  inhibition at 1 µM: 69.3%

## O=c1cc(CN2Cc3ccc(C(F)(F)F)cc3C2)occ1/C=C/[C@H]1CC[C@H](NS(=O)(=O)CC2CC2)CC1 [Compound 62]
[1]; [3]
  inhibition at 0.1 µM: 67%
[1]; [4]
  inhibition at 1 µM: 79%

## O=C(N[C@H]1CC[C@H](COc2coc(CN3Cc4ccc(OC5CC5)cc4C3)cc2=O)CC1)C1CC1 [Compound 34]
[1]
  IC50: 122 nM

## O=c1cc(CN2Cc3ccc(C(F)(F)F)cc3C2)occ1OC[C@H]1CC[C@@H](NS(=O)(=O)CC2CC2)CC1 [Compound 10]
[1]; [3]
  inhibition at 0.1 µM: 63%
[1]; [4]
  inhibition at 1 µM: 79.7%

## O=c1cc(CN2Cc3ccc(C(F)(F)F)cc3C2)occ1OC[C@H]1CC[C@H](NS(=O)(=O)c2ccsc2)CC1 [Compound 68]
[1]; [3]
  inhibition at 0.1 µM: 81%
[1]; [4]
  inhibition at 1 µM: 86%

## O=C(CC1CC1)N1CCC(/C=C/c2coc(CN3Cc4ccc(C(F)(F)F)cc4C3)cc2=O)CC1 [Compound 52]
[2]; [5]
  AUC(0-t): 10500 ng·h/mL
  half-life: 2.21 h
[2]; [6]
  AUC(0-t): 3300 ng·h/mL
  clearance: 12.3 mL/min/kg
  half-life: 1.37 h
  Vd: 1.39 L/kg
[1]
  IC50: 98.2 nM
[1]; [7]
  inhibition at 0.1 µM: 55.8%
[1]; [8]
  inhibition at 1 µM: 74.9%

## CC(OC(=O)N1CCC(COc2coc(CN3Cc4ccc(C(F)(F)F)cc4C3)cc2=O)CC1)C(F)(F)F (single isomer, unassigned) [Compound 56]
[1]; [3]
  inhibition at 0.1 µM: 53.6%
[1]; [4]
  inhibition at 1 µM: 79.3%

## O=C(N[C@H]1CC[C@H](COc2coc(CN3Cc4ccc(C(F)(F)F)cc4C3)cc2=O)CC1)[C@H]1CC1(F)F [Compound 65]
[1]; [3]
  inhibition at 0.1 µM: 80%
[1]; [4]
  inhibition at 1 µM: 78%

## CS(=O)(=O)N[C@H]1C[C@H](C(=O)N2CCC(COc3coc(CN4Cc5ccc(C(F)(F)F)cc5C4)cc3=O)CC2)C1 [Compound 72]
[1]; [3]
  inhibition at 0.1 µM: 58%
[1]; [4]
  inhibition at 1 µM: 68%

## CS(=O)(=O)N1CC(OC(=O)N2CCC(/C=C/c3coc(CN4Cc5ccc(C(F)(F)F)cc5C4)cc3=O)CC2)C1 [Compound 26]
[1]; [3]
  inhibition at 0.1 µM: 61%
[1]; [4]
  inhibition at 1 µM: 78%

## O=C(N[C@H]1CC[C@H](C(=O)Nc2coc(CN3Cc4ccc(C(F)(F)F)cc4C3)cc2=O)CC1)C1CC1 [Compound 119]
[1]; [3]
  inhibition at 0.1 µM: 60%
[1]; [4]
  inhibition at 1 µM: 81%

## O=C(CC1CC1)N1CCC(/C=C/c2coc(CN3Cc4ccc(C5CC5)cc4C3)cc2=O)CC1 [Compound 16]
[1]
  IC50: 98.3 nM
[1]; [3]
  inhibition at 0.1 µM: 55%
[1]; [4]
  inhibition at 1 µM: 79.6%

## O=C(C1CC(F)(F)C1)N1CCC(COc2coc(CN3Cc4ccc(C(F)(F)F)cc4C3)cc2=O)CC1 [Compound 73]
[1]; [3]
  inhibition at 0.1 µM: 83%
[1]; [4]
  inhibition at 1 µM: 87%

## O=C(OC1CC1)N1CCC(/C=C/c2coc(CN3Cc4ccc(C(F)(F)F)cc4C3)cc2=O)CC1 [Compound 31]
[2]; [5]
  AUC(0-t): 13400 ng·h/mL
  half-life: 5.65 h
[2]; [6]
  AUC(0-t): 4270 ng·h/mL
  clearance: 9.48 mL/min/kg
  half-life: 5.16 h
  Vd: 3.41 L/kg

## CS(=O)(=O)N1CC(OC(=O)N2CC3C(COc4coc(CN5Cc6ccc(C(F)(F)F)cc6C5)cc4=O)C3C2)C1 (stereo not drawn) [Compound 77]
[1]; [3]
  inhibition at 0.1 µM: 71%
[1]; [4]
  inhibition at 1 µM: 84%

## CC1(NC2CCC(/C=C/c3coc(CN4Cc5ccc(C(F)(F)F)cc5C4)cc3=O)CC2)COC1 (single isomer, unassigned) [Compound 122]
[1]; [3]
  inhibition at 0.1 µM: 63%
[1]; [4]
  inhibition at 1 µM: 82%

## CS(=O)(=O)N1CCC2(CC1)CC(C(=O)N1CCC(COc3coc(CN4Cc5ccc(C(F)(F)F)cc5C4)cc3=O)CC1)C2 [Compound 75]
[1]; [3]
  inhibition at 0.1 µM: 69%
[1]; [4]
  inhibition at 1 µM: 78%

## O=C(N[C@H]1CC[C@H](COc2coc(CN3Cc4ccc(C(F)(F)F)cc4C3)cc2=O)CC1)[C@@H]1CC1(F)F [Compound 66]
[1]; [3]
  inhibition at 0.1 µM: 78%
[1]; [4]
  inhibition at 1 µM: 82%

## O=C(N[C@H]1CC[C@@H](COc2coc(CN3Cc4ccc(C(F)(F)F)cc4C3)cc2=O)CC1)C1CC1(F)F (stereo partly drawn) [Compound 55]
[1]; [3]
  inhibition at 0.1 µM: 63%
[1]; [4]
  inhibition at 1 µM: 72.7%

## CS(=O)(=O)N1CCC2(CC1)CC2C(=O)N1CCC(COc2coc(CN3Cc4ccc(C(F)(F)F)cc4C3)cc2=O)CC1 (single isomer, unassigned) [Compound 70]
[1]; 100 nM compound, NCI-H295R cells, three days incubation
  Testosterone level in H295R (Elisa) inh.% 100 nM: 60%
[1]; 1000 nM compound, NCI-H295R cells, three days incubation
  Testosterone level in H295R (Elisa) inh.% 1000 nM: 83%

## CS(=O)(=O)N1CCC2(CC1)CC2C(=O)N1CCC(COc2coc(CN3Cc4ccc(C(F)(F)F)cc4C3)cc2=O)CC1 (single isomer, unassigned) [Compound 69]
[1]; [3]
  inhibition at 0.1 µM: 62%
[1]; [4]
  inhibition at 1 µM: 76%

## CS(=O)(=O)N1CC(OC(=O)N2CCC(COc3coc(CN4Cc5ccc(OC6CC6)cc5C4)cc3=O)CC2)C1 [Compound 25]
[1]; [3]
  inhibition at 0.1 µM: 56%
[1]; [4]
  inhibition at 1 µM: 77%

## O=C(CC(F)(F)F)N[C@H]1CC[C@H](/C=C/c2coc(CN3Cc4ccc(C(F)(F)F)cc4C3)cc2=O)CC1 [Compound 102]
[1]; [3]
  inhibition at 0.1 µM: 79%
[1]; [4]
  inhibition at 1 µM: 82%

## CS(=O)(=O)N1CC(OC(=O)N2CCC(COc3coc(CN4Cc5ccc(S(F)(F)(F)(F)F)cc5C4)cc3=O)CC2)C1 [Compound 19]
[1]; [3]
  inhibition at 0.1 µM: 64.8%
[1]; [4]
  inhibition at 1 µM: 78.3%

## O=C(N[C@H]1CC[C@H](CCc2coc(CN3Cc4ccc(C(F)(F)F)cc4C3)cc2=O)CC1)[C@@H]1CC1(F)F [Compound 112]
[1]; [3]
  inhibition at 0.1 µM: 74%
[1]; [4]
  inhibition at 1 µM: 78%

## O=C(N[C@H]1CC[C@H](CCc2coc(CN3Cc4ccc(C(F)(F)F)cc4C3)cc2=O)CC1)[C@H]1CC1(F)F [Compound 113]
[1]; [3]
  inhibition at 0.1 µM: 76%
[1]; [4]
  inhibition at 1 µM: 77%

## O=C(O[C@H]1CCOC1)N1CCC(/C=C/c2coc(CN3Cc4ccc(OC5CC5)cc4C3)cc2=O)CC1 [Compound 48]
[1]; [3]
  inhibition at 0.1 µM: 72.4%
[1]; [4]
  inhibition at 1 µM: 78.5%

## O=C(OC1CC1)N1CC(/C=C/c2coc(CN3Cc4ccc(C(F)(F)F)cc4C3)cc2=O)C1 [Compound 53]
[1]; [3]
  inhibition at 0.1 µM: 61%
[1]; [4]
  inhibition at 1 µM: 67.3%

## O=C(OC1CC1)N1CCC(COc2coc(CN3Cc4ccc(OC5CCC5)cc4C3)cc2=O)CC1 [Compound 49]
[1]; [3]
  inhibition at 0.1 µM: 67.3%
[1]; [4]
  inhibition at 1 µM: 75.2%

## C#Cc1ccc2c(c1)CN(Cc1cc(=O)c(OCC3CCN(C(=O)OC4COC4)CC3)co1)C2 [Compound 6]
[1]; [3]
  inhibition at 0.1 µM: 79.5%
[1]; [4]
  inhibition at 1 µM: 90.8%

Source: patent EP4692079A1, “CYP11A1 INHIBITOR AND USE THEREOF” (priority 2023, dated 2024)
